Consider 36 molecules from patent US9518015B2, “EP1 receptor ligands” (LABORATORIOS DEL DR. ESTEVE, S.A., priority 2011, dated 2016).

Some results are limits rather than exact numbers.

Experiment [1] deals with T1, human EP1 receptor (Homo sapiens, UniProt P34995).
T1 sequence (P34995 1-402): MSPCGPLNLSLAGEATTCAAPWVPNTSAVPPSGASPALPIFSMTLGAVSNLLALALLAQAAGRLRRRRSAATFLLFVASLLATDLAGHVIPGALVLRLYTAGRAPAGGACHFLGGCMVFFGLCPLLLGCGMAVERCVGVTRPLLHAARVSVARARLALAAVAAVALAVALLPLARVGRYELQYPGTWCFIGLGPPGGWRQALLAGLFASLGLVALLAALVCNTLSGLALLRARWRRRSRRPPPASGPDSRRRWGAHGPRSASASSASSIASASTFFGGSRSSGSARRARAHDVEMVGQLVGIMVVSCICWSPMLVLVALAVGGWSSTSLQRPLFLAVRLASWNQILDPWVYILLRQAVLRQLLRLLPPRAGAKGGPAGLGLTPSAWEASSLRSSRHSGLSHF
In words: Test 1: Human EP1 receptor radioligand binding assay ([3H]-PGE2, transfected HEK-293 cell membranes). More on the design: expressed in transfected cells; host or cells: HEK-293 cell membranes. The note with it: for inhibition at 10 µM: read-out: Results of Test 1 (Binding assay), % inh. The procedure:
Test 1: Human EP1 Receptor Radioligand Binding Assay
To investigate binding properties of EP1 receptor ligands to human EP1 receptor, transfected HEK-293 cell membranes and [3H]-PGE2 (Perkin Elmer) were used. In 96-well plates the assay was carried out with a total reaction volume of 250 μl, containing 25 μl of membrane suspension (30 μg protein/well), 25 μl of [3H]-PGE2 (10 nM) in either absence or presence of 25 μl of either buffer or PGE2 (10 μM) for total and non-specific binding, respectively. Binding buffer contained 10 mM MES, 1 mM MgCl2 and 1 mM EDTA at pH 6.0. Plates were incubated at 25° C. for 60 minutes. After the incubation period, 200 μl of incubate were transferred to MultiScreen HTS, FB plates (Millipore), filtered and plates were washed 6 times with ice-cold 10 mM MES, 1 mM MgCl2 and 1 mM EDTA at pH 6.0. Filters were dried and counted in a MicroBeta scintillation counter (Perkin-Elmer) using EcoScint liquid scintillation cocktail.
Percentage inhibition was calculated relating compounds activity to the 0% inhibition of the wells incubated with 10 nM [3H]-PGE2 alone (total binding) and 100% inhibition of the wells incubated with 10 nM [3H]-PGE2 plus 10 μM PGE2 (non-specific binding).

Experiment [2] deals with T1, human EP1 receptor. The experiment can be described thus: Test 3: Measurement of IP1 responses by HTRF, HEK-293 cells stably expressing human EP1 receptors incubated o/n, PGE2 10 nM. Format: cell-based. Also noted: expressed in transfected cells. The settings on record: for inhibition at 10 µM: HEK293, read-out: Results of Test 3 (Functional assay), % inh. How it is done:
Test 3: Measurement of IP1 Responses by Homogeneous Time Resolved Fluorescence
IP1 measurements on HEK-293 cells that stably expressed human EP1 receptors were performed by using a system based on Homogeneous Time Resolved Fluorescense (HTRF) (Gabriel et al., 2003). This technology allows the direct measurement of IP1 in living cells. The principle of this assay is based on competition between IP1 produced by cells and IP1-d2 conjugate for the binding with monoclonal anti-IP1-cryptate conjugate. The HTRF IP1 kit from CisBio was used according to the manufacturer's directions. The experimental procedure was performed as stated below.
40,000 cells per well were added to 96-well culture plates in 40 μl of Optimem and incubated o/n at 37° C. Optimem was replaced by 40 μl of stimulation buffer (supplied by the kit) and compounds were then added in 20 μl of stimulation buffer and incubated at 37° C. for 15 minutes followed by 10 μl of PGE2 to a final concentration of 10 nM. After 90 minutes at 37° C., the reaction was stopped lysing the cells with a mixture of 15 μl of cryptate and 15 μl of IP1-d2 prepared in the lysis buffer supplied by the manufacturer. Plates were incubated for an additional hour at room temperature and read at 665 nm/620 nm using an UltraEvolution Plate reader (Tecan).
Antagonist percentage inhibition was calculated relating compounds activity to the 0% inhibition of the wells incubated with 10 nM PGE2 alone and 100% inhibition of the wells incubated with 10 nM PGE2 plus 10 μM of the reference antagonist.

For `O=C(O)c1cccc2c1OCCN2Cc1ccccc1OCc1ccc(Cl)cc1F` [Example 119], the inhibition at 10 µM on human EP1 receptor [1] and on human EP1 receptor [2] was above 75% throughout.
Regarding `O=C(O)c1cccc2c1OCCN2Cc1cc(F)ccc1OCc1ccc(F)cc1Cl` [Example 121], the inhibition at 10 µM at human EP1 receptor [1] and on human EP1 receptor [2] was above 75% each time.
Regarding `O=C(O)c1cccc2c1OCCN2Cc1ccccc1OCc1ccc(F)cc1F` [Example 122], the inhibition at 10 µM at human EP1 receptor [1] and at human EP1 receptor [2] was above 75% throughout.
With `O=C(O)c1cccc2c1cnn2Cc1cc(Cl)ccc1OCc1ccc(Cl)cc1F` [Example 124], the inhibition at 10 µM on human EP1 receptor [1] and on human EP1 receptor [2] was above 75% throughout.
Regarding `CC(C)(F)COc1ccc(Cl)cc1Cn1ncc2c(C(=O)O)cccc21` [Example 125], the inhibition at 10 µM at human EP1 receptor [1] and at human EP1 receptor [2] was above 75% in each case.
On to `O=C(O)c1cccc2c1cnn2Cc1cc(Br)ccc1OCc1ccc(Cl)cc1F` [Example 136], for which the inhibition at 10 µM at human EP1 receptor [1] and at human EP1 receptor [2] was above 75% each time.
Turning to `O=C(O)c1cccc2c1cnn2Cc1cc(Cl)ccc1OC1CCC1` [Example 137], the inhibition at 10 µM on human EP1 receptor [1] and on human EP1 receptor [2] was above 75% throughout.
Take `CC(C)(C)COc1ccc(Cl)cc1Cn1ncc2c(C(=O)O)cccc21` [Example 138]: the inhibition at 10 µM on human EP1 receptor [1] and at human EP1 receptor [2] was above 75% in each case.
`O=C(O)c1cccc2c1c(CO)cn2Cc1cc(Cl)ccc1OCc1ccc(Cl)cc1F` [Example 141, sodium 1-(5-chloro-2-((4-chloro-2-fluorobenzyl)oxy)benzyl)-3-(hydroxymethyl)-1H-indole-4-carboxylate]: the inhibition at 10 µM at human EP1 receptor [1] and on human EP1 receptor [2] was above 75% throughout.
For the molecule `O=C(O)c1cccc2c1c(CO)cn2Cc1cc(Cl)ccc1OCc1ccc(F)cc1F` [Example 142], the inhibition at 10 µM at human EP1 receptor [1] and on human EP1 receptor [2] was above 75% in each case.
Take `O=C(O)c1cccc2c1c(CO)cn2Cc1ccccc1OCc1ccc(Cl)cc1F` [Example 144]: the inhibition at 10 µM at human EP1 receptor [1] and on human EP1 receptor [2] was above 75% throughout.
On to `O=C(O)c1cccc2c1c(CO)cn2Cc1cc(F)ccc1OCc1ccc(F)cc1F` [Example 145], for which the inhibition at 10 µM on human EP1 receptor [1] and at human EP1 receptor [2] was above 75% each time.
In the case of `O=C(O)c1cccc2c1c(CO)cn2Cc1cc(F)ccc1OCc1ccc(Cl)cc1F` [Example 146], the inhibition at 10 µM on human EP1 receptor [1] and at human EP1 receptor [2] was above 75% in each case.
Regarding `CC(C)(F)COc1ccc(Cl)cc1Cn1cc(CO)c2c(C(=O)O)cccc21` [Example 147], the inhibition at 10 µM on human EP1 receptor [1] and on human EP1 receptor [2] was above 75% each time.
For `O=C(O)c1cccc2c1c(CO)cn2Cc1cc(F)ccc1OC1CCC1` [Example 148], the inhibition at 10 µM at human EP1 receptor [1] and at human EP1 receptor [2] was above 75% throughout.
For the molecule `O=C(O)c1cccc2c1c(CO)cn2Cc1cc(F)ccc1OCc1ccc(F)cc1` [Example 149], the inhibition at 10 µM on human EP1 receptor [1] and on human EP1 receptor [2] was above 75% throughout.
On to `CC(CF)COc1ccc(Cl)cc1Cn1cc(CO)c2c(C(=O)O)cccc21` (stereo not drawn) [Example 151], for which the inhibition at 10 µM on human EP1 receptor [1] and at human EP1 receptor [2] was above 75% throughout.
As for `O=C(O)c1ccnc2c1c(CO)cn2Cc1cc(Cl)ccc1OCc1ccc(F)cc1F` [Example 152], the inhibition at 10 µM on human EP1 receptor [1] and on human EP1 receptor [2] was above 75% in each case.
Consider `CC(C)COc1ccc(Cl)cc1Cn1cc(CCO)c2c(C(=O)O)cccc21` [Example 157], for which the inhibition at 10 µM at human EP1 receptor [1] and on human EP1 receptor [2] was above 75% in each case.
With `CC(C)(F)COc1ccc(Cl)cc1CN1CCc2c(C(=O)O)cccc21` [Example 166], the inhibition at 10 µM at human EP1 receptor [1] and at human EP1 receptor [2] was above 75% in each case.
Turning to `CC(C)COc1ccc(Cl)cc1CN1CCc2c(C(=O)O)cccc21` [Example 169], the inhibition at 10 µM on human EP1 receptor [1] and at human EP1 receptor [2] was above 75% each time.
On to `CC(C)COc1ccc(F)cc1CN1CCc2c(C(=O)O)cccc21` [Example 170], for which the inhibition at 10 µM on human EP1 receptor [1] and at human EP1 receptor [2] was above 75% in each case.
Take `CC(C)COc1ccc(Cl)cc1CN1CCCc2c(C(=O)O)cccc21` [Example 175]: the inhibition at 10 µM on human EP1 receptor [1] and on human EP1 receptor [2] was above 75% in each case.
With `CC(C)(F)COc1ccc(Cl)cc1CN1CCCc2c(C(=O)O)cccc21` [Example 177], the inhibition at 10 µM at human EP1 receptor [1] and on human EP1 receptor [2] was above 75% throughout.
Turning to `O=C(O)c1cccc2c1CCCN2Cc1cc(Cl)ccc1OC1CCC1` [Example 178], the inhibition at 10 µM on human EP1 receptor [1] and on human EP1 receptor [2] was above 75% in each case.
Consider `C=C(CF)COc1ccc(Cl)cc1CN1CCCc2c(C(=O)O)cccc21` [Example 182], for which the inhibition at 10 µM at human EP1 receptor [1] and on human EP1 receptor [2] was above 75% each time.
`O=C(O)c1cccc2c1c(CO)nn2Cc1cc(Cl)ccc1OCc1ccc(Cl)cc1F` [Example 188, sodium 1-(5-chloro-2-((4-chloro-2-fluorobenzyl)oxy)benzyl)-3-(hydroxymethyl)-1H-indazole-4-carboxylate]: the inhibition at 10 µM on human EP1 receptor [1] and at human EP1 receptor [2] was above 75% throughout.
In the case of `Cc1ccc(OCc2ccc(Cl)cc2F)c(CN2CCOc3c(C(=O)O)cccc32)c1` [Example 194], the inhibition at 10 µM on human EP1 receptor [1] and at human EP1 receptor [2] was above 75% throughout.
Take `CC(C)COc1ccc(F)cc1CN1CCOc2c(C(=O)O)cccc21` [Example 195]: the inhibition at 10 µM at human EP1 receptor [1] and on human EP1 receptor [2] was above 75% throughout.
As for `CC(C)COc1ccc(Cl)cc1CN1CCOc2c(C(=O)O)cccc21` [Example 196], the inhibition at 10 µM on human EP1 receptor [1] and at human EP1 receptor [2] was above 75% each time.
Regarding `O=C(O)c1cccc2c1OCCN2Cc1cc(Cl)ccc1OC1CCC1` [Example 197], the inhibition at 10 µM on human EP1 receptor [1] and at human EP1 receptor [2] was above 75% in each case.
On to `COCc1cn(Cc2cc(Cl)ccc2OCc2ccc(Cl)cc2F)c2cccc(C(=O)O)c12` [Example 207, Sodium 1-(5-chloro-2-(4-chloro-2-fluorobenzyloxy)benzyl)-3-(methoxymethyl)-1H-indole-4-carboxylate], for which the inhibition at 10 µM on human EP1 receptor [1] and on human EP1 receptor [2] was above 75% throughout.
For `O=C(O)c1cccc2c1CC(=O)N2Cc1cc(Cl)ccc1OCc1ccc(Cl)cc1F` [Example 208, sodium 1-(5-chloro-2-(4-chloro-2-fluorobenzyloxy)benzyl)-2-oxoindoline-4-carboxylate], the inhibition at 10 µM at human EP1 receptor [1] and on human EP1 receptor [2] was above 75% each time.
Consider `O=C(O)c1ccnc2c1cnn2Cc1cc(Cl)ccc1OCc1ccc(Cl)cc1F` [Example 212, sodium 1-{5-chloro-2-[(4-chloro-2-fluorobenzyl)oxy]benzyl}-1H-pyrazolo[3,4-b]pyridine-4-carboxylate], for which the inhibition at 10 µM on human EP1 receptor [1] and on human EP1 receptor [2] was above 75% in each case.
For `O=C(O)c1ccnc2c1CCN2Cc1cc(Cl)ccc1OCc1ccc(Cl)cc1F` [Example 216, sodium 1-{5-chloro-2-[(4-chloro-2-fluorobenzyl)oxy]benzyl}-2,3-dihydro-1H-pyrrolo[2,3-b]pyridine-4-carboxylate], the inhibition at 10 µM at human EP1 receptor [1] and at human EP1 receptor [2] was above 75% throughout.
For the molecule `O=C([O-])c1ccnc2c1CCN2Cc1cc(Cl)ccc1OCc1ccc(F)cc1F.[Na+]` [Example 217], the “Results of Test 1 (Binding assay), % inh” value on human EP1 receptor [1] (at 10 μM) is on record as “# (% inh > 75)”. Moreover, the “Results of Test 3 (Functional assay), % inh” value at human EP1 receptor [2] (at 10 μM) is listed as “$ (% inh > 75)”.
